We go through one substance from patent US20260124293A1 (priority 2022, published 2026).

In one data set the test system is K18-hACE2 mice. The note with it: mouse, in vivo.
Another data set relates to Syrian hamsters. As to conditions: hamster, in vivo.

With “BetaCoV/Wuhan/IVDC-HB-01/2019 [SARS-CoV-2 WT]”, in the data set on K18-hACE2 mice, the body weight loss result is “associated with weight loss” and the clinical signs result is recorded as “only WT exhibit clinical signs”. In the data set with Syrian hamsters, the “animals that succumbed to the disease or reached termination criteria” value was determined as 75% and the mean bodyweight was determined as 84%.
